Laboratory results reported in US20160367961A1, “METHOD AND COMPOSITION FOR PEPTIDE C[…] PROTEASE TREATMENT” (Roche Sequencing Solutions, Inc., priority 2015, published 2016).
Square brackets hold non-standard residues; d marks the D form. Peptide text beside a SMILES is read from it.

Assays:
streptavidin-Cy5 = streptavidin-Cy5 (Streptomyces avidinii, UniProt P22629); experiment: Streptavidin-Cy5 binding to cyclic/linear peptide microarray, Cy5 fluorescence scan
Procedure: Slides were bound with […] streptavidin-Cy5 in 30 mL binding buffer for 30 minutes at room temperature. Binding buffer contained 1% alkali soluble casein and 0.05% tween-20 in 1×TBS, pH 7.4. After 30 minutes, slides were washed twice in 1×TBS buffer for 1 minute, water for 30 seconds, and spun to dryness.
Cy5 fluorescence intensity of the arrays was measured with MS200 scanner (Roche NimbleGen) at resolution 2 um, wavelength 635 nm, gain 25% and laser intensity 100%. Cy5 signal intensities were extracted using Image Extraction Software (Roche NimbleGen). Data pre-processing, normalization and statistical tests were done in R. Data visualization and analysis were performed with Spotfire 6.5.0 (Tibco, Boston, Mass.) software platform.

streptavidin = streptavidin (Streptomyces avidinii, UniProt P22629); experiment: biochemical
Chain of streptavidin (P22629 25-183, species assumed): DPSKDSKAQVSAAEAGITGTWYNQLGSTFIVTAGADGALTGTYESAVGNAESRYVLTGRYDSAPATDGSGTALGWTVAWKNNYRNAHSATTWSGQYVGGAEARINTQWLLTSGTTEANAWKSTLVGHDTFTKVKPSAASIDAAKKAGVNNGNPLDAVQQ
Procedure: Surface plasmon resonance (SPR) experiments were performed on a BIAcore X100 (GE Healthcare). The running buffer was HBS-EP+. To prepare a streptavidin coated chip, 100 ug/mL streptavidin in Acetate 5.0 immobilization buffer was coupled to flow cell 2 of a CM5 chip using the Amine Coupling Kit (GE Healthcare. The chip was then conditioned by flowing a solution containing 0.2 M NaCl and 10 mM NaOH in water over the prepared chip for 60 seconds. The binding affinities of the cyclic and linear peptides were measured against the prepared streptavidin chip using a multiple cycle experiment with base regeneration between each step. Here, seven prepared concentrations of peptide in HBS-EP+ buffer were flowed over the streptavidin chip for 30 seconds and then allowed to dissociate for 60 seconds. Following each peptide concentration, the streptavidin chip was regenerated by flowing 0.2 M NaCl and 10 mM NaOH in water over the chip for 30 seconds followed by a stabilization period of 120 seconds. Kinetic parameters were determined using BIAcore X100 Evaluation Software Version 2.0.1.

[1] = extension of HPQ-specific design JXXHPQXXJU, all J combinations (Example 12), FIG. 15

Chain of streptavidin-Cy5 (P22629 25-183): as the sequence (P22629 25-183, species assumed) above

| Compound | Kd (streptavidin) [µM] | other results |
| --- | --- | --- |
| NQpWU (cyclo(NQ[dP]WE); also: position 5: U in name, array-bound via glutamate side chain) [cylic NQpWU, U = glutamate attached to the surface through its side chain, p = D-proline] |  | cyclic fluorescent intensity (streptavidin-Cy5; peptide library of the format XXXXU (Example 9), cyclic subarray, FIG. 10): highest cyclic fluorescent intensity |
| H-QNDHPQNGGQ-OH [linear NH2-QNDHPQNGGQ-COOH, NH2-QNDHPQNGGQ-COOH] | 320 |  |
| NC(=O)CC[C@H](NC(=O)[C@H](Cc1c[nH]c2ccccc12)NC(=O)[C@H]1CCCN1C(=O)[C@H](CCC(N)=O)NC(=O)[C@@H](N)CC(N)=O)C(=O)O [linear NH2-NQpWQ-COOH, NH2-NQpWQ-COOH] (H-NQ[dP]WQ-OH) | > 2000 |  |
| CC(C)C[C@@H]1NC(=O)[C@H](CCC(N)=O)NC(=O)CNC(=O)CNC(=O)[C@H](CC(N)=O)NC(=O)[C@H](CCC(N)=O)NC(=O)[C@@H]2CCCN2C(=O)[C@H](Cc2c[nH]cn2)NC(=O)[C@H](CC(=O)O)NC(=O)[C@H](Cc2ccc(O)cc2)NC1=O [cyclic LYDHPQNGGQ, LYDHPQNGGQ] (cyclo(DHPQNGGQLY)) | 9.4 |  |
| NC(=O)CC[C@@H]1NC(=O)[C@H](Cc2c[nH]c3ccccc23)NC(=O)[C@H]2CCCN2C(=O)[C@H](CCC(N)=O)NC(=O)[C@H](CC(N)=O)NC1=O [cyclic NQpWQ, NQpWQ] (cyclo(NQ[dP]WQ)) | 61.3 |  |
| QNDHPQNGGU (cyclo(QNDHPQNGGE); also: position 10: U in name, array-bound via glutamate side chain) [cyclic QNDHPQNGGU, U = glutamate attached to the surface through its side chain] |  | log fold change (logFC) between cyclic and linear fluorescent intensity (streptavidin-Cy5; extension of HPQ-specific design JXXHPQXXJU (Example 12), FIG. 15, positive logFC = preference for cyclic peptide): high logFC; cyclic fluorescent intensity (streptavidin-Cy5; [1]): high cyclic intensitiy |
| H-LYDHPQNGGQ-OH [linear NH2-LYDHPQNGGQ-COOH, NH2-LYDHPQNGGQ-COOH] | 100 |  |
| LYDHPQNGGU (cyclo(LYDHPQNGGE); also: position 10: U in name, array-bound via glutamate side chain) [cylic LYDHPQNGGU, U = glutamate attached to the surface through its side chain] |  | cyclic fluorescent intensity (streptavidin-Cy5; [1]): highest cyclic intensity |
| NC(=O)CC[C@@H]1NC(=O)CNC(=O)CNC(=O)[C@H](CC(N)=O)NC(=O)[C@H](CCC(N)=O)NC(=O)[C@@H]2CCCN2C(=O)[C@H](Cc2c[nH]cn2)NC(=O)[C@H](CC(=O)O)NC(=O)[C@H](CC(N)=O)NC(=O)[C@H](CCC(N)=O)NC1=O [cyclic QNDHPQNGGQ, QNDHPQNGGQ] (cyclo(DHPQNGGQQN)) | 10.8 |  |
